From patent US20240262817A1, “QUINAZOLINE DERIVATIVES TARGETING R(CCUG) REPEATS IN MYOTONIC DYSTROPHY TYPE 2” (University of Florida Research Foundation, Incorporated, priority 2021, published 2024) come the findings set out here.

Data set [1] relates to DM2 patient-derived fibroblasts. Put plainly: Cell viability by CellTiter-Glo. It counts as cell-based. Conditions: for toxicity in DM2 patient-derived fibroblasts: at 5 μM; for toxicity as stated in legend of FIG. 3C: DM2 fibroblasts. As for the experimental part:
(§1) Cell lines and cell culture: Compounds were tested in two cell lines: (i) DM2 patient-derived fibroblasts (generous gift from University of Florida, Center for NeuroGenetics) and (ii) fibroblasts from a healthy donor (wild-type; WT GM07492; Coriell Institute). Cells were maintained at 37° ° C. with 5% CO2. DM2 fibroblasts were cultured in DMEM/high glucose (HyClone) supplemented with 20% FBS (Sigma) and 1% Antibiotic-Antimycotic solution (Corning). Wild-type fibroblasts were cultured in MEM (Corning) supplemented with 10% FBS, 1% Glutagro (Corning), and 1% Antibiotic-Antimycotic solution.
Evaluation of cell viability: Compound toxicity in DM2 fibroblasts was evaluated using a CellTiter-Glo Kit (Promega) as described in the manufacturer's protocol. Briefly, after 48 h treatment in 96-wells plates, 100 μL of the CellTiter-Glo reagent was added to each well. The plate was then incubated at room temperature for 10 min, and luminescence was measured using BioTek FLX-800 luminescence plate reader (n=6 replicates; 1 independent experiment).
For orientation: In ATP-based viability assays light output follows the ATP content of the culture.

Data set [2] deals with IR exon 11 alternative splicing in DM2 patient-derived fibroblasts. Put plainly: Rescue of IR exon 11 splicing via RT-PCR in DM2 fibroblasts. It counts as cell-based. As for the experimental part:
as §1
Evaluation of pre-mRNA splicing via RT-PCR: Pre-mRNA splicing was analyzed as previously described.^10 Briefly, cells were grown in 6-well plates and treated with the desired compound in growth medium at ˜40% confluency. After 48 h, the cells were lysed, and total RNA was harvested using a Zymo Quick RNA Miniprep Kit. Approximately 1 μg of total RNA was reverse transcribed using a qScript cDNA synthesis kit (20 μL of total reaction volume, Quanta BioSciences); 2 μL of the RT reaction was used for PCR using GoTaq DNA polymerase (Promega). RT-PCR products were observed after 35 cycles of 95° C. for 30 s, 58° C. for 30s, 72 °C for 1 min, and a final extension at 72° C. for 5 min. Products were separated on a 2% agarose gel (110 V for 1 h in 13TBE buffer), visualized by staining with ethidium bromide, and imaged using a Typhoon 9410 variable mode imager. Gels were quantified using ImageJ. Percent rescue was calculated by dividing the difference between treated and untreated DM2 samples by the difference between untreated DM2 and WT samples (Equation 2).

Data set [3] concerns r(GACAGCCUGCUGUC)2 duplex, RNA containing a single 2×2 CU/UC internal loop. Put plainly: NMR spectroscopy (WaterLOGSY, 1D) of binding to RNA with one 2×2 CU/UC internal loop. The source says: The binding 1-7 an RNA containing a single 2×2 CU/UC was further studied by NMR spectroscopy. […] Aromatic protons of the unbound RNA were assigned via a 2D NOESY spectrum (Figure S7).
NMR samples preparation: A self-complementary RNA construct, r(5′-GACAGCCUGCUGUC-3′), SEQ ID NO:12, was purchased from GE Healthcare Dharmacon, Inc., deprotected according to the manufacturer's recommended protocol, and desalted with PD-10 columns (GE Healthcare, cat: 17-0851-01) also per the manufacturer's protocol. RNA samples were dissolved in NMR Buffer [10 mM KH2PO4/K2HPO4 and 0.05 mM EDTA (pH 6.0)] and folded by heating to 95° C. for 3 min and slowly cooling to room temperature.
NMR spectroscopy: NMR spectra were acquired at 25° C. on Bruker Avance III 600 and 700 MHZ spectrometers equipped with cryoprobes. 1D NMR spectra were acquired on samples containing 100 μM of RNA alone in 100% D20. Compounds 38, 40, 41, and 42 were each titrated into separate samples at 0.5, 1.0, 1.5, and 2.0 compound: RNA molar ratios. WaterLOGSY (water-ligand observed via gradient spectroscopy) spectra^29 were acquired on samples containing 300 μM of each compound alone or in the presence of 15 μM of RNA at a 20:1 compound:RNA ratio in H2O, to which D2O was added to 5% by volume. WaterLOGSY spectra were phased to give negative NOEs for non-binders. […]

The next data set deals with r(CCUG)12-MBNL1 complex. Put plainly: TR-FRET assay, disruption of pre-formed r(CCUG)12-MBNL1 complex. It counts as biochemical. Conditions: in vitro, read-out: IC50 for disrupting an r(CCUG)12-MBNL1 complex. An excerpt: Of the 44 hits, 38 contained a similar substituted N2-phenylquinazoline-2,4-diamine core, while the other hits contained benzimidazoles and indazoles (Figure S2). Importantly, these 44 compounds are drug-like as they have similar physicochemical properties to the rest of the library and to known-drugs in Drug Bank (FIG. 2A). On average, the 44 hit compounds have a molecular weight of 327±35 g/mol, a cLogP of 3.2±0.9. TPSA of 76±15 Å, and 2.5±0.9 hydrogen bond donors. The in vitro potencies (IC50s) of the 44 compounds were then measured in the TR-FRET assay, affording seven compounds (1-7) with IC50s <50 μM (highlighted in red in FIGS. 2B & 2C).
In vitro IC50 measurements: IC50 measurements for disruption of r(CCUG)12-MBNL1 complex was completed using a previously reported TR-FRET assay with minor modifications.^23, 24 Briefly, 5′-biotinylated r(CCUG)12 (SEQ ID NO: 15) was folded in 1× Folding Buffer (20 mM HEPES, pH 7.5, 110 mM KCl, and 10 mM NaCl) at 60° C. for 5 min then cooled to room temperature. The buffer was adjusted to 1× Assay Buffer (20 mM HEPES, pH 7.5, 110 mM KCl, 10 mM NaCl, 2 mM MgCl2, 2 mM CaCl2), 5 mM DTT. 0.1% BSA, and 0.5% Tween-20).
Next, MBNL1-His6 was added, and the samples were incubated at room temperature for 15 min. […] The samples were incubated for 30 min at room temperature and added to a white 384-well plate, where TR-FRET was measured on a Molecular Devices SpectraMax M5 plate reader using an excitation wavelength of 345-nm and a 420-nm cutoff. The ratios of fluorescence intensity at 545 and 665 nm were calculated, and ratios in the absence of a compound and in the absence of RNA were used to calculate percent disruption. […]
[formula] • where y is ratio of fluorescence intensities at 545 nm and 665 nm (F545/F665), x is the concentration of a compound, B is F545/F665 value at max FRET effect (solution has RNA and protein but no compound added); A is F545/F665 value at min FRET effect (solution has antibodies but no RNA, protein, or compound); and the IC50 is the concentration of a compound where half of the protein is displaced by a compound.
In general terms: In TR-FRET formats the signal depends on donor and acceptor labels being close together.

`Cc1ccc2nc(Nc3ccc4nc(N5CCOCC5)sc4c3)nc(NCCCO)c2c1` [Compound 72, 3-((6-methyl-2-((2-morpholinobenzo[d]thiazol-6-yl)amino)quinazolin-4-yl)amino)propan-1-ol]: the “toxicity in DM2 patient-derived fibroblasts” value in data set [1] is reported as “significant toxicity”. Same read-out and setting: under `Cc1ccc2nc(Nc3ccc4nc(NCCN5CCOCC5)sc4c3)nc(NCCCO)c2c1` [Compound 74, 3-((6-methyl-2-((2-((2-morpholinoethyl)amino)benzo[d]thiazol-6-yl)amino)quinazolin-4-yl)amino)propan-1-ol] stands “significant toxicity”. For `Cc1ccc2nc(Nc3ccc4nc(NCC(C)(C)O)sc4c3)nc(NCCCO)c2c1` [Compound 78, 3-((2-((2-((2-hydroxy-2-methylpropyl)amino)benzo[d]thiazol-6-yl)amino)-6-methylquinazolin-4-yl)amino)propan-1-ol], the “improvement of IR splicing” value in data set [2] (at 5 μM) is “significantly improved IR splicing”. The “toxicity in DM2 patient-derived fibroblasts” value in data set [1] is “no toxicity”. `Cc1ccc2nc(Nc3ccc4nc(NCC(C)C)sc4c3)nc(NCCCO)c2c1` [Compound 73, 3-((2-((2-(isobutylamino)benzo[d]thiazol-6-yl)amino)-6-methylquinazolin-4-yl)amino)propan-1-ol]: the “toxicity in DM2 patient-derived fibroblasts” value in data set [1] is “significant toxicity”. Regarding `Cc1ccc2nc(Nc3ccc4nc(N(CCO)CCO)sc4c3)nc(NCCCO)c2c1` [Compound 80, 2,2′-((6-((4-((3-hydroxypropyl)amino)-6-methylquinazolin-2-yl)amino)benzo[d]thiazol-2-yl)azanediyl)bis(ethan-1-ol)], the “toxicity as stated in legend of FIG. 3C” value in data set [1] is reported as “non-toxic”. With `Cc1ccc2nc(Nc3ccc4nc(NC5CCN(Cc6ccccc6)CC5)sc4c3)nc(NCCCO)c2c1` [Compound 71, 3-((2-((2-((1-benzylpiperidin-4-yl)amino)benzo[d]thiazol-6-yl)amino)-6-methylquinazolin-4-yl)amino)propan-1-ol], the “toxicity in DM2 patient-derived fibroblasts” value in data set [1] was “significant toxicity”. On the same count and under the same terms, under `Cc1ccc2nc(Nc3ccc4nc(N5CCN(C)CC5)sc4c3)nc(NCCCO)c2c1` [Compound 82, 3-((6-methyl-2-((2-(4-methylpiperazin-1-yl)benzo[d]thiazol-6-yl)amino)quinazolin-4-yl)amino)propan-1-ol] stands “significant toxicity”. Consider `Cc1ccc2nc(Nc3ccc4nc(NCCN(C)C)sc4c3)nc(NCCCO)c2c1` [Compound 79, 3-((2-((2-((2-(dimethylamino)ethyl)amino)benzo[d]thiazol-6-yl)amino)-6-methylquinazolin-4-yl)amino)propan-1-ol], for which the “rescue of IR splicing” value in data set [2] (any concentration studied) is given as “did not significantly rescue splicing”. Moreover, in data set [1], the “toxicity as stated in legend of FIG. 3C” value is “non-toxic” and the “toxicity in DM2 patient-derived fibroblasts” value is given as “no toxicity”. For the molecule `OCCCNc1nc(Nc2ccc3c(c2)OCCO3)nc2ccccc12` [Compound 7, 3-((2-((2,3-dihydrobenzo[b][1,4]dioxin-6-yl)amino)quinazolin-4-yl)amino)propan-1-ol], in data set [2] (at 1 μM dose, p=0.026), the “rescue of IR splicing” value came to 12±5. Moreover, the “rescue of IR exon 11 splicing” value in data set [2] (at 5 μM) is reported as approximately 50%. Also, the “shifts of RNA H6 and H8 proton resonances in 1D NMR, indicating binding” value in data set [3] (compound added to RNA with one 2×2 CU/UC internal loop) is listed as “Significant shifts in resonances”. In addition, in data set [3] (positive phase signals in the presence of RNA), the “binding to the RNA by waterLOGSY spectra” value is “bound to the RNA”. In addition, the IC50 (commonly the concentration that gives 50% inhibition) in the data set on r(CCUG)12-MBNL1 complex was 48.2 ± 0.07 µM. With `Cc1ccc2nc(Nc3ccc4c(c3)OCCO4)nc(NCCCO)c2c1` [Compound 58, 3-((2-((2,3-dihydrobenzo[b][1,4]dioxin-6-yl)amino)-6-methylquinazolin-4-yl)amino)propan-1-ol], in the data set with r(CCUG)12-MBNL1 complex, the IC50 was determined as 12.7 ± 0.2 µM.
